Where “and” joins values, the source holds several entries; their conditions need not be identical. Identical values can stand only once. Like-named read-outs stand apart in the source and are kept apart here.
Assays:
[1] = Highest recorded migalastat exposure in a Fabry patient after a single dose of 450 mg; format: in vivo, human; conditions: single dose of 450 mg
From the text: FIGS. 2A-D show the mean simulation plots for each regimen.

[2] = Multiple dose simulations (2-compartment model, WinNonlin) on the renal impairment subjects of Example 1; parameters: species or system human; conditions: ratio to AUCPPK
From the text: This example provides computer simulations of dosing the renal impairment subjects of Example 1. The key assumption was exposure characterized in non-Fabry subjects with renal impairment is the same as in Fabry patients with renal impairment. The software program was WinNonlin version 5.2 or higher. […] Steady state was assumed by 7th dose. […] QOD (every other day or 48 hrs), Q3D (every 3rd day or 72 hrs), Q4D (every 4th day or 96 hrs), and Q7D (every 7th day/once a week or 168 hrs). A 2-compartment model was used to estimate volume of distribution (Vd) and elimination rate constants from single dose data. These estimates were inputted into each molecular dose simulation regimen.

[3] = Plasma migalastat concentration in two Fabry patients with renal impairment (P1, P2; Example 3); format: in vivo, human; conditions: for concentration at 0 h: human, plasma, Fabry patient P1 (moderate renal impairment), Pre-dose (0 h)
Procedure: Migalastat levels can be measured via methods known in the art. […] Microcentrifuge tubes containing 100 μl of the tissue homogenate or 50 μl of plasma may then be spiked with 500 ng/mL 13C d2-AT1001 HCl internal standard (manufactured by MDS Pharma Services). A 600 μl volume of 5 mM HCl in 95/5 MeOH:H2O can then be added and the tubes vortexed for 2 minutes, followed by centrifugation at 21000×g for 10 minutes at room temperature. The supernatants may then be collected into a clean, 96-well plate, diluted with 5 mM HCl in dH2O and applied to a 96-well solid phase extraction (SPE) plate (Waters Corp., Milford Mass.). […] The liquid chromatography can be conducted using an ACN:water:formate binary mobile phase system (mobile phase A: 5 mM ammonium formate, 0.5% formic acid in 95:5 ACN:water; mobile phase B: 5 mM ammonium formate, 0.5% formic acid in 5:47.5:47.5 ACN:MeOH:water) with a flow rate of 0.7 mL/minute on an Halo HILIC column (150×4.6 mm, 2.7 μm) (Advanced Materials Technology, Inc.). MS/MS analysis may be carried out under APCi positive ion mode. The same procedure may be followed for migalastat determination in plasma except without homogenization. […] A 12-point calibration curve and quality control samples may be prepared. […] To derive approximate molar concentrations, one gram of tissue may be estimated as one mL of volume.
Thus, two Fabry patients with renal impairment were evaluated. One patient (P1) had moderate renal impairment, while the other patient (P2) had severe renal impairment. […] The comparison with the results from the FACETS study allows for comparison of PK in the Fabry population with mostly normal, but some mild and a few moderately impaired Fabry patients. None had severe renal impairment because these patients were excluded from the study.

[4] = Phase 1 single-dose pharmacokinetics and safety study of migalastat HCl in non-Fabry subjects with renal impairment (Example 1, AT1001-015); format: in vivo, human; conditions: for AUC0-∞: individual subjects, in ng·h/mL; for concentration at 96 h: read-out: C96 h, Mean; for Comparison to Example 1 Moderate Impairment (migalastat concentration): non-Fabry subjects with moderate renal impairment, in ng/mL (unit assumed); for Comparison to Example 1 Severe Impairment (migalastat concentration): non-Fabry subjects with severe renal impairment, (coefficient of variation)
Procedure: The eGFR estimated by the Cockcroft-Gault equation per the FDA Guidance for renal impairment studies.
Volunteers were enrolled into two cohorts stratified for renal function calculated using the Cockcroft-Gault equation for creatinine clearance (CLcr). Subjects were assigned to groups based on an estimated CLcr at screening as calculated using the Cockcroft-Gault equation.
Subjects were grouped according to degree of renal dysfunction: mild (CLcr ≥60 and <90 mL/min), moderate (CLcr ≥30 and <60 mL/min), or severe (CLcr ≥15 and <30 mL/min)

[5] = Fabry patient P1, moderate renal impairment
[6] = AT1001-015, Mild (CLcr ≥60-<90 mL/min), N 8
[7] = AT1001-015, Moderate (CLcr ≥30-<60 mL/min), N 8
[8] = AT1001-015, Normal (CLcr ≥90 mL/min), N 8
[9] = AT1001-015, Severe (CLcr ≥15-<30 mL/min), N 8
[10] = human, plasma, po, 150 mg, single oral 150 mg migalastat HCl, non-Fabry subjects, renal function group Mild (N = 8)
[11] = human, plasma, po, 150 mg, single oral 150 mg migalastat HCl, non-Fabry subjects, renal function group Moderate (N = 8)
[12] = human, plasma, po, 150 mg, single oral 150 mg migalastat HCl, non-Fabry subjects, renal function group Normal (N = 8)
[13] = human, plasma, po, 150 mg, single oral 150 mg migalastat HCl, non-Fabry subjects, renal function group Severe (N = 8)
[14] = single oral 150 mg migalastat HCl, non-Fabry subjects, renal function group Mild (N = 8)
[15] = single oral 150 mg migalastat HCl, non-Fabry subjects, renal function group Moderate (N = 8)
[16] = single oral 150 mg migalastat HCl, non-Fabry subjects, renal function group Normal (N = 8)

## OC[C@H]1NC[C@H](O)[C@@H](O)[C@H]1O [migalastat, (2R,3S,4R,55)-2-(hydroxymethyl) piperdine-3,4,5-triol]
[1]
  highest exposure of migalastat in a Fabry patient: 53035 ng·h/mL
[2]; Geometric Mean of the 11 subjects
  RacPPK: 4.96
[2]; individual subjects, Moderate (≥30-≤35) group
  RacPPK: 3.75 and 4.36 and 2.06
[2]; individual subjects, Severe (<30) group
  RacPPK: 8.81 and 5.59 and 5.02 and 6.74 and 6.23 and 6.91 and 3.62 and 5.17
[3]; [5]
  increase of C48h concentration over 6 months: 49%
  increase of Cmax over 6 months: 33%
[3]; Migalastat Conc 6 months later
  concentration at 0 h: 36.4 ng/mL
[3]; Migalastat Conc, first set
  concentration at 0 h: 19.9 ng/mL
[4]; [6]
  AUC0-t, Geometric mean: 14374 ng·h/mL
  AUC0-∞, Geometric mean (CV %): 14520 (30.8) hr*ng/mL
  C96 h, Mean: BLQ
  Frel: 1.2
  t1/2, Mean: 7.7 h
  tmax, Median (min-max): 2.5 (1.5-4.0) hr
[4]; [7]
  AUC0-t, Geometric mean: 22122 ng·h/mL
  AUC0-∞, Geometric mean (CV %): 22455 (41.2) hr*ng/mL
  Frel: 1.8
[4]; [8]
  AUC0-t, Geometric mean: 12299 ng·h/mL
  AUC0-∞, Geometric mean (CV %): 12389 (24.8) hr*ng/mL
  C96 h, Mean: BLQ
  t1/2, Mean: 6.4 h
  tmax, Median (min-max): 2.5 (1.5-3.0) hr
[4]; [9]
  AUC0-t, Geometric mean: 53098 ng·h/mL
  AUC0-∞, Geometric mean (CV %): 56174 (24.2) hr*ng/mL
  Cmax, Geometric mean (CV %): 2078 (43.3) ng/mL
  Frel: 4.5
[4]; NCA SD Data, single 150 mg migalastat HCl, Moderate (≥30-≤35) group
  AUC0-∞: 36051 and 40653 and 19723
[4]; NCA SD Data, single 150 mg migalastat HCl, Severe (<30) group
  AUC0-∞: 83312 and 54470 and 48890 and 62034 and 59538 and 65916 and 36227 and 49905
[4]; human, plasma, oral, 150 mg, 150 mg dose of migalastat hydrochloride, individuals with normal kidney function, level of quantification, read-out: C48h
  concentration at 48 h: < 5 ng/mL
[4]; human, plasma, oral, 150 mg, AT1001-015, Mild (CLcr ≥60-<90 mL/min), N 8, read-out: C48 h, Mean
  concentration at 48 h: 9.34 ng/mL
[4]; human, plasma, oral, 150 mg, AT1001-015, Moderate (CLcr ≥30-<60 mL/min), N 8
  concentration at 96 h: 16.7 ng/mL
[4]; human, plasma, oral, 150 mg, AT1001-015, Normal (CLcr ≥90 mL/min), N 8, read-out: C48 h, Mean
  concentration at 48 h: 5.7 ng/mL
[4]; human, plasma, oral, 150 mg, NCA SD Data, single 150 mg migalastat HCl, Geometric Mean of the 11 subjects
  AUC(0-inf): 47600 ng·h/mL
[4]; human, plasma, oral, 150 mg, AT1001-015, Severe (CLcr ≥15-<30 mL/min), N 8
  concentration at 96 h: 105 ng/mL
[4]; human, plasma, oral, 150 mg, AT1001-015, Severe (CLcr ≥15-<30 mL/min), N 8, read-out: tmax, Median (min-max)
  tmax: 4 h
[4]; [10]
  AUC(0-inf): 14500 ng·h/mL
  AUC(0-t): 14400 ng·h/mL
  Cmax: 2190 ng/mL
[4]; [11]
  AUC(0-inf): 22500 ng·h/mL
  AUC(0-t): 22100 ng·h/mL
  Cmax: 1870 ng/mL
[4]; [12]
  AUC(0-inf): 12400 ng·h/mL
  AUC(0-t): 12300 ng·h/mL
  Cmax: 2100 ng/mL
[4]; [13]
  AUC(0-inf): 56200 ng·h/mL
  AUC(0-t): 53100 ng·h/mL
[4]; moderate (predominantly CrCL <50 ml/min) and severe renal impairment
  Plasma migalastat C48h levels compared with healthy control subjects: elevated
[4]; 3 Hrs Post
  Comparison to Example 1 Moderate Impairment (migalastat concentration): 1868
[4]; 24 Hrs Post
  Comparison to Example 1 Moderate Impairment (migalastat concentration): 239
[4]; 48 Hrs Post
  Comparison to Example 1 Moderate Impairment (migalastat concentration): 64.5
[4]; Pre-dose (0 h), same value as 48 h
  Comparison to Example 1 Moderate Impairment (migalastat concentration): 64.5
[4]; 2 h
  Comparison to Example 1 Severe Impairment (migalastat concentration): 1549 (59.3%)
[4]; 24 h
  Comparison to Example 1 Severe Impairment (migalastat concentration): 770 (26.5%)
[4]; 48 h
  Comparison to Example 1 Severe Impairment (migalastat concentration): 334 (38.2%)
[4]; single oral 150 mg migalastat HCl, across any of the renal impairment groups
  Cmax compared to healthy control subjects: not increased
[4]; single oral 150 mg migalastat HCl, all renal function groups
  Incidence of adverse events: comparable across all renal function groups
[4]; single oral 150 mg migalastat HCl, mild renal impairment
  mean plasma migalastat AUC0-∞ increase compared to healthy control subjects: 1.2 fold
[4]; single oral 150 mg migalastat HCl, moderate renal impairment
  mean plasma migalastat AUC0-∞ increase compared to healthy control subjects: 1.8 fold
[4]; [14]
  CL/F: 10.3 L/h
  t1/2: 7.66 h
  tmax: 2.50 h
[4]; [15]
  CL/F: 6.68 L/h
  tmax: 3.00 h
[4]; [16]
  CL/F: 12.1 L/h
  t1/2: 6.42 h
  tmax: 2.50 h
[4]; single oral 150 mg migalastat HCl, non-Fabry subjects, renal function group Severe (N = 8)
  CL/F: 2.67 L/h
[4]; single oral 150 mg migalastat HCl, severe group
  tmax compared to healthy control subjects: slightly delayed
[4]; single oral 150 mg migalastat HCl, severe renal impairment
  mean plasma migalastat AUC0-∞ increase compared to healthy control subjects: 4.5 fold
